According to patent publication US9878986B2, “Compounds for selective histone deacetylase inhibitors, and pharmaceutical composition comprising the same” (CHONG KUN DANG PHARMACEUTICAL CORP., priority 2013, dated 2018):

Columns and labels:
[1] = tested on: collagen-induced arthritis models; test: Collagen-induced arthritis models; format: in vivo, DBA/1J mice; settings: 30 mg/kg twice a day
Protocol: An emulsion was prepared by mixing bovine collagen type II (Chondrex) and complete Freund's adjuvant (Chondrex) at a ratio of 1:1 until the […] using a 1 ml pipette. Each 100 μL of emulsion was intradermally injected into the tail of DBA/1J mice for the first immunization. After 21 days, an emulsion was prepared by mixing bovine collagen type II and incomplete Freund's adjuvant (Chondrex) at a ratio of 1:1 by the same method as above. Each of 100 μL of emulsion was intradermally injected into the upper part of the tail of DBA/1J mice for the second boosting immunization. After the second boosting immunization, the mice were grouped according to body weight, the test drug was administered to each group, and the effects of the test drugs were measured by measuring the clinical score and the body weight. The clinical scores were assigned from 0 to 4, and the total clinical score was determined by evaluating the feet of each mouse and summing up the scores (normal: 0, most severe edema: 16). That is, the efficacy in the arthritis models was evaluated with the severity of edema of the joint, and a higher score was assigned to more severe edema.

[2] = tested on: colitis models; test: Colitis models (dextran sulfate sodium); format: in vivo, C57BL/6J mice; settings: intraperitoneally twice a day after 8 days from supply of DSS; disease-induced models lost to 17.5 to 18 g
Protocol: 3.0% dextran sulfate sodium (DSS: MP biomedicals) was dissolved in deionized water and supplied to 9-week-old C57BL/6J mice for 5 to 7 days and then water was normally supplied to the mice to induce colitis in animal models. The experimental animals were classified into a solvent control group and each group treated with Compound 254 and Compound 255 as test materials based on the body weight of the experimental animals. The test material was intraperitoneally injected twice a day after 8 days from the supply of DSS. The evaluation of the efficacy in colitis models was made by determining the degree to which the weight, lost due to the disease, was recovered to normal level, and the results are shown in FIG. 6.

[3] = target: T1, HDAC 6 (Homo sapiens, UniProt Q9UBN7); test: Test of HDAC activities, HDAC6 (fluorimetric); format: biochemical; set-up: purchased Calbiochem 382180; settings: samples at 0.1, 1, 10, 100, 1000 nM; 37° C. 60 minutes; fluorescence Ex 390, Em 460; read-out: HDAC inhibitory activities, HDAC6
T1 sequence (Q9UBN7 1-1215): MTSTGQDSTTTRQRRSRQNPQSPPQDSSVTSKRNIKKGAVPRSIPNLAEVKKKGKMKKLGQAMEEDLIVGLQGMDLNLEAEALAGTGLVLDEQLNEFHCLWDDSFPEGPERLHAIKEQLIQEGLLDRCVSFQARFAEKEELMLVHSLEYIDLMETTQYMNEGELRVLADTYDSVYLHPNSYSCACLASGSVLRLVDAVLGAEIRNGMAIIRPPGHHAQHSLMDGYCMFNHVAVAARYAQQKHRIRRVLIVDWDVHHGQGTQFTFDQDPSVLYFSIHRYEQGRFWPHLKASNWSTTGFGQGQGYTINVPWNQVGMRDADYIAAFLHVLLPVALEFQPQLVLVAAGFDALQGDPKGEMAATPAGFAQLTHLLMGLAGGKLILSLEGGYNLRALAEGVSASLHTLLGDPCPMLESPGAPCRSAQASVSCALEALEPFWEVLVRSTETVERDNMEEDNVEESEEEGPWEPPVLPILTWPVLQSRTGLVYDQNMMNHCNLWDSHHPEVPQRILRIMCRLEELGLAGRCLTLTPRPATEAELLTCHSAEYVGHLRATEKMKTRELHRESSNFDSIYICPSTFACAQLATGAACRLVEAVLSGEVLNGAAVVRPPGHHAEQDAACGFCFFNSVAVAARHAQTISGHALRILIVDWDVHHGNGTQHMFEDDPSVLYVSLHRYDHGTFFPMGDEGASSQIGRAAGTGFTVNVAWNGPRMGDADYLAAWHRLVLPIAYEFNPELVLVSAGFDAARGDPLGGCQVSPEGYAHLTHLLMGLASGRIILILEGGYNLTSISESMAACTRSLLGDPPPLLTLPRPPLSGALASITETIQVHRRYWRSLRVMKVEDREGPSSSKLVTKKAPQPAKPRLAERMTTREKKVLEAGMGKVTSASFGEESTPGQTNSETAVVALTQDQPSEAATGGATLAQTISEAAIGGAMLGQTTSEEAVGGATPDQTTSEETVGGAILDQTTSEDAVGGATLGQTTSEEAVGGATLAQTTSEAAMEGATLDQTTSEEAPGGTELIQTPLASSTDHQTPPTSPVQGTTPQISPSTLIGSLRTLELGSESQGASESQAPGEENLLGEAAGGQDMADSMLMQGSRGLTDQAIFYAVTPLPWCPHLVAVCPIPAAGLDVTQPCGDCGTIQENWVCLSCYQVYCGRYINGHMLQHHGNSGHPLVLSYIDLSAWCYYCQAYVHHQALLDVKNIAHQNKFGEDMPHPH
How it was run: (§1)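 HDAC1 tested at 100, 1000 and 10000 nM; recombinant human HDAC6 at 0.1, 1, 10, 100 and 1000 nM. Reaction 60 min at 37° C, then developer for 30 min at 37° C; fluorescence read at Ex 390/Em 460.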

[4] = target: HDAC1 (Homo sapiens, UniProt Q13547); test: Test of HDAC activities, HDAC1 Fluorimetric Drug Discovery Assay Kit; format: biochemical; set-up: purchased Enzolifesciences BML-AK511; settings: samples at 100, 1000, 10000 nM; 37° C. 60 minutes; fluorescence Ex 390, Em 460; read-out: HDAC inhibitory activities, HDAC1
HDAC1, sequence (Q13547 whole entry): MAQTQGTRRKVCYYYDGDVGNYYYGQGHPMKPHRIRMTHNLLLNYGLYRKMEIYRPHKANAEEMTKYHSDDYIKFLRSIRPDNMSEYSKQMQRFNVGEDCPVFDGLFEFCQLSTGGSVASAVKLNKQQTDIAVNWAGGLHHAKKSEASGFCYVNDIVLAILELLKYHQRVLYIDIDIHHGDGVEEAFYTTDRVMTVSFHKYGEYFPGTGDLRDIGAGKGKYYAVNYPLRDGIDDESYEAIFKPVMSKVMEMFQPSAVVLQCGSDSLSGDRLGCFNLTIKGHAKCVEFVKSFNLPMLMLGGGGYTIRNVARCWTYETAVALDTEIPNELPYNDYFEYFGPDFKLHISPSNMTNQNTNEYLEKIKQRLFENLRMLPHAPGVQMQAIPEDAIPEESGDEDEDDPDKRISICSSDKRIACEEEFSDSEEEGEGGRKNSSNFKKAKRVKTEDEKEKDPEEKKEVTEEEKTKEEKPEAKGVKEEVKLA
How it was run: as §1

[5] = tested on: adjuvant-induced arthritis models; test: Adjuvant-induced arthritis models; format: in vivo, Lewis rat; settings: for clinical score: intraperitoneally, vehicle group 4.2
Protocol: Complete Freund's Adjuvant (Chondrex) containing 10 mg/mL Heat killed mycobacteria toxin was sufficiently mixed, and then 100 μL was taken and intradermally injected into the upper part of the tail of Lewis rat to induce arthritis. After 10 days, the length of the ankle circumference of rats was measured, and then the rats were grouped and used in the experiment. Each compound was intraperitoneally injected twice a day. The clinical score, the length of the ankle circumference, and the weight were measured twice a week after the administration of the compounds. The clinical scores were assigned from 0 to 4 based on the thesis of Woods, etc. (J. Immunology, 1214-1222, 2001), and the total clinical score was determined by evaluating the feet of each rat and summing up the scores (normal: 0, most severe edema: 16). The length of the ankle circumference was calculated based on the formula of 2×3.14(√(a^2+b^2/2)) after measuring top-bottom sides (a) of the foot and lateral sides (b) of the foot. The final value was determined by averaging the calculated values of each foot.

SMILES	IC50 [3] [nM]	IC50 [4] [nM]	also measured
Cn1ncc2ccc(-c3cccc(N(Cc4ccc(C(=O)NO)cc4)C(=O)N4CCOCC4)c3)cc21 [Compound 254, N-(4-(hydroxycarbamoyl)benzyl)-N-(3-(1-methyl-1H-indazol-6-yl)phenyl)morpholine-4-carboxamide]	2	173	arthritis symptoms improved by ([1]; versus vehicle group): more than 40%; clinical score ([1]; score 0 to 16, vehicle group 11.6): 6.4; weight recovered to [2]: 18.5 to 19.0 g
CCN1CCN(C(=O)N(Cc2ccc(C(=O)NO)cc2)c2cccc(C(F)(F)F)c2)CC1 [Compound 461, 4-ethyl-N-(4-(hydroxycarbamoyl)benzyl)-N-(3-(trifluoromethyl)phenyl)piperazine-1-carboxamide]	1	2720	clinical score ([5]; 25 mg/kg twice a day): 1.9; clinical score ([5]; 50 mg/kg twice a day): 1.3; improvement compared with MTX used as the control group ([5]; 25 and 50 mg/kg twice a day): higher than that of MTX; arthritis symptoms improved by ([5]; 25 and 50 mg/kg twice a day, versus vehicle group): 50 to 70%
COc1ccccc1N1CCN(C(=O)N(Cc2ccc(C(=O)NO)cc2)c2ccccn2)CC1 [Compound 356, N-(4-(hydroxycarbamoyl)benzyl)-4-(2-methoxyphenyl)-N-(pyridin-2-yl)piperazine-1-carboxamide]	4	3820	
O=C(NO)c1ccc(CN(C(=O)N2CCCCC2)c2cccc(C(F)(F)F)c2)cc1 [Compound 460, N-(4-(hydroxycarbamoyl)benzyl)-N-(3-(trifluoromethyl)phenyl)piperidine-1-carboxamide]	3	2370	
O=C(NO)c1ccc(CN(C(=O)N2CCC(O)(c3ccccc3)CC2)c2ccc(C(F)(F)F)cc2)cc1 [Compound 486, 4-hydroxy-N-(4-(hydroxycarbamoyl)benzyl)-4-phenyl-N-(4-(trifluoromethyl)phenyl)piperidine-1-carboxamide]	6	1450	
CC1CN(C(=O)N(Cc2ccc(C(=O)NO)cc2)c2ncccn2)CC(C)O1 (stereo not drawn) [Compound 313, N-(4-(hydroxycarbamoyl)benzyl)-2,6-dimethyl-N-(pyrimidin-2-yl)morpholine-4-carboxamide]	7	35900	
O=C(NO)c1ccc(CN(C(=O)N2CCOCC2)c2ccc(Br)cc2)cc1 [Compound 372, N-(4-bromophenyl)-N-(4-(hydroxycarbamoyl)benzyl)morpholine-4-carboxamide]	1	212	
